Results taken from ChEMBL document CHEMBL1671858, “Coprevalence of plasmid-mediated quinolone resistance determinants QepA, Qnr, and AAC(6')-Ib-cr among 16S rRNA methylase RmtB-producing Escherichia coli isolates from pigs” (2008).
Converted amounts (≈) assume the structure as drawn.

Experiments:
Assay type in all cases: functional
[1] = test system: Escherichia coli; experiment: Antimicrobial activity against Escherichia coli isolate GZ1 transconjugant harboring 16S rRNA methylase RmtB and qnrS1 by agar dilution method relative to recipient strain
[2] = test system: Escherichia coli; experiment: Antimicrobial activity against Escherichia coli isolate GZ8 PFGE type C harboring qepA gene by agar dilution method
[3] = test system: Escherichia coli; experiment: Antimicrobial activity against Escherichia coli isolate CQ18 PFGE type I2 harboring qepA gene by agar dilution method
[4] = test system: Escherichia coli; experiment: Antimicrobial activity against Escherichia coli isolate CQ26 PFGE type K harboring qepA gene by agar dilution method
[5] = test system: Escherichia coli; experiment: Antimicrobial activity against Escherichia coli isolate CQ4 transconjugant harboring 16S rRNA methylase RmtB and qepA by agar dilution method relative to recipient strain
[6] = test system: Escherichia coli; experiment: Antimicrobial activity against Escherichia coli isolate GZ11 PFGE type E harboring qepA gene by agar dilution method
[7] = test system: Escherichia coli; experiment: Antimicrobial activity against Escherichia coli isolate CQ19 PFGE type S harboring qepA gene by agar dilution method
[8] = test system: Escherichia coli; experiment: Antimicrobial activity against Escherichia coli isolate CQ13 transconjugant harboring 16S rRNA methylase RmtB and qnrS1 by agar dilution method relative to recipient strain
[9] = test system: Escherichia coli; experiment: Antimicrobial activity against Escherichia coli isolate CQ5 transconjugant harboring 16S rRNA methylase RmtB and qepA by agar dilution method relative to recipient strain
[10] = test system: Escherichia coli; experiment: Antimicrobial activity against Escherichia coli isolate CQ7 PFGE type Q harboring qepA gene by agar dilution method
[11] = test system: Escherichia coli; experiment: Antimicrobial activity against Escherichia coli isolate GZ16 transconjugant harboring 16S rRNA methylase RmtB and qepA by agar dilution method relative to recipient strain
[12] = test system: Escherichia coli; experiment: Antimicrobial activity against Escherichia coli isolate GZ1 PFGE type O harboring qepA gene by agar dilution method
[13] = test system: Escherichia coli; experiment: Antimicrobial activity against Escherichia coli isolate CQ26 transconjugant harboring 16S rRNA methylase RmtB and qepA by agar dilution method relative to recipient strain
[14] = test system: Escherichia coli; experiment: Antimicrobial activity against Escherichia coli isolate GZ11 transconjugant harboring 16S rRNA methylase RmtB and qepA by agar dilution method relative to recipient strain
[15] = test system: Escherichia coli; experiment: Antimicrobial activity against Escherichia coli isolate CQ5 PFGE type I2 harboring qepA gene by agar dilution method
[16] = test system: Escherichia coli; experiment: Antimicrobial activity against Escherichia coli isolate CQ18 transconjugant harboring 16S rRNA methylase RmtB and qepA by agar dilution method relative to recipient strain
[17] = test system: Escherichia coli; experiment: Antimicrobial activity against Escherichia coli isolate CQ2 PFGE type I2 harboring qepA gene by agar dilution method
[18] = test system: Escherichia coli; experiment: Antimicrobial activity against Escherichia coli isolate CQ16 PFGE type Q harboring qepA gene by agar dilution method
[19] = test system: Escherichia coli; experiment: Antimicrobial activity against Escherichia coli isolate CQ6 PFGE type Q harboring qepA gene by agar dilution method
[20] = test system: Escherichia coli; experiment: Antimicrobial activity against Escherichia coli isolate CQ22 PFGE type P harboring qepA gene by agar dilution method
[21] = test system: Escherichia coli; experiment: Antimicrobial activity against Escherichia coli isolate CQ10 transconjugant harboring 16S rRNA methylase RmtB and qepA by agar dilution method relative to recipient strain
[22] = test system: Escherichia coli; experiment: Antimicrobial activity against Escherichia coli isolate GZ12 PFGE type F harboring qepA gene by agar dilution method
[23] = test system: Escherichia coli; experiment: Antimicrobial activity against Escherichia coli isolate GZ6 transconjugant harboring 16S rRNA methylase RmtB and qepA by agar dilution method relative to recipient strain
[24] = test system: Escherichia coli; experiment: Antimicrobial activity against Escherichia coli isolate GZ3 transconjugant harboring 16S rRNA methylase RmtB and qepA by agar dilution method relative to recipient strain
[25] = test system: Escherichia coli; experiment: Antimicrobial activity against Escherichia coli isolate CQ2 transconjugant harboring 16S rRNA methylase RmtB and qepA by agar dilution method relative to recipient strain
[26] = test system: Escherichia coli; experiment: Antimicrobial activity against Escherichia coli isolate GZ15 transconjugant harboring 16S rRNA methylase RmtB and qepA by agar dilution method relative to recipient strain
[27] = test system: Escherichia coli; experiment: Antimicrobial activity against Escherichia coli isolate GZ3 PFGE type A1 harboring qepA gene by agar dilution method
[28] = test system: Escherichia coli; experiment: Antimicrobial activity against Escherichia coli isolate GZ4 PFGE type A2 harboring qepA gene by agar dilution method
[29] = test system: Escherichia coli; experiment: Antimicrobial activity against Escherichia coli isolate GZ13 transconjugant harboring 16S rRNA methylase RmtB and qepA by agar dilution method relative to recipient strain
[30] = test system: Escherichia coli; experiment: Antimicrobial activity against Escherichia coli isolate CQ20 transconjugant harboring 16S rRNA methylase RmtB and qepA by agar dilution method relative to recipient strain
[31] = test system: Escherichia coli; experiment: Antimicrobial activity against Escherichia coli isolate GZ9 transconjugant harboring 16S rRNA methylase RmtB and qepA by agar dilution method relative to recipient strain
[32] = test system: Escherichia coli; experiment: Antimicrobial activity against Escherichia coli isolate CQ20 PFGE type J1 harboring qepA gene by agar dilution method
[33] = test system: Escherichia coli; experiment: Antimicrobial activity against Escherichia coli isolate GZ14 transconjugant harboring 16S rRNA methylase RmtB and qepA by agar dilution method relative to recipient strain
[34] = test system: Escherichia coli; experiment: Antimicrobial activity against Escherichia coli isolate CQ12 transconjugant harboring 16S rRNA methylase RmtB and qepA, qnrS2, aac(6')-Ib-cr gene by agar dilution method relative to recipient strain
[35] = test system: Escherichia coli; experiment: Antimicrobial activity against Escherichia coli isolate GZ2 PFGE type O harboring qepA gene by agar dilution method
[36] = test system: Escherichia coli; experiment: Antimicrobial activity against Escherichia coli isolate CQ19 transconjugant harboring 16S rRNA methylase RmtB and qepA, aac(6')-Ib-cr gene by agar dilution method relative to recipient strain
[37] = test system: Escherichia coli; experiment: Antimicrobial activity against Escherichia coli isolate GZ8 transconjugant harboring 16S rRNA methylase RmtB and qepA by agar dilution method relative to recipient strain
[38] = test system: Escherichia coli; experiment: Antimicrobial activity against Escherichia coli isolate CQ15 transconjugant harboring 16S rRNA methylase RmtB and qepA by agar dilution method relative to recipient strain
[39] = test system: Escherichia coli; experiment: Antimicrobial activity against Escherichia coli isolate GZ16 PFGE type H harboring qepA gene by agar dilution method
[40] = test system: Escherichia coli; experiment: Antimicrobial activity against Escherichia coli isolate CQ7 transconjugant harboring 16S rRNA methylase RmtB and qepA, qnrS2, aac(6')-Ib-cr gene by agar dilution method relative to recipient strain
[41] = test system: Escherichia coli; experiment: Antimicrobial activity against Escherichia coli isolate GZ2 transconjugant harboring 16S rRNA methylase RmtB and qnrS1 by agar dilution method relative to recipient strain
[42] = test system: Escherichia coli; experiment: Antimicrobial activity against Escherichia coli isolate CQ1 PFGE type U harboring qepA gene by agar dilution method
[43] = test system: Escherichia coli; experiment: Antimicrobial activity against Escherichia coli isolate CQ14 PFGE type M harboring qepA gene by agar dilution method
[44] = test system: Escherichia coli; experiment: Antimicrobial activity against Escherichia coli isolate CQ15 PFGE type I1 harboring qepA gene by agar dilution method
[45] = test system: Escherichia coli; experiment: Antimicrobial activity against Escherichia coli isolate CQ13 PFGE type K harboring qepA gene by agar dilution method
[46] = test system: Escherichia coli; experiment: Antimicrobial activity against Escherichia coli isolate GZ14 PFGE type F harboring qepA gene by agar dilution method
[47] = test system: Escherichia coli; experiment: Antimicrobial activity against Escherichia coli isolate CQ16 transconjugant harboring 16S rRNA methylase RmtB and qepA, qnrS2, aac(6')-Ib-cr gene by agar dilution method relative to recipient strain

## CCN1CCN(c2cc3c(cc2F)c(=O)c(C(=O)O)cn3C2CC2)CC1 [ENROFLOXACIN]
[1]
  fold change (FC): 32
[2]
  MIC: 64 µg/mL (≈ 178 µM)
[3]
  MIC: 2 µg/mL (≈ 5.56 µM)
[4]
  MIC: 0.5 µg/mL (≈ 1.39 µM)
[5]
  fold change (FC): 1
[6]
  MIC: 128 µg/mL (≈ 356 µM)
[7]
  MIC: 2 µg/mL (≈ 5.56 µM)
[8]
  fold change (FC): 8
[9]
  fold change (FC): 2
[10]
  MIC: 2 µg/mL (≈ 5.56 µM)
[11]
  fold change (FC): 2
[12]
  MIC: 4 µg/mL (≈ 11.1 µM)
[13]
  fold change (FC): 2
[14]
  fold change (FC): 4
[15]
  MIC: 4 µg/mL (≈ 11.1 µM)
[16]
  fold change (FC): 1
[17]
  MIC: 2 µg/mL (≈ 5.56 µM)
[18]
  MIC: 2 µg/mL (≈ 5.56 µM)
[19]
  MIC: 2 µg/mL (≈ 5.56 µM)
[20]
  MIC: 4 µg/mL (≈ 11.1 µM)
[21]
  fold change (FC): 2
[22]
  MIC: 16 µg/mL (≈ 44.5 µM)
[23]
  fold change (FC): 2
[24]
  fold change (FC): 4
[25]
  fold change (FC): 16
[26]
  fold change (FC): 8
[27]
  MIC: 64 µg/mL (≈ 178 µM)
[28]
  MIC: 32 µg/mL (≈ 89 µM)
[29]
  fold change (FC): 2
[30]
  fold change (FC): 4
[31]
  fold change (FC): 2
[32]
  MIC: 0.03 µg/mL (≈ 0.0835 µM)
[33]
  fold change (FC): 8
[34]
  fold change (FC): 4
[35]
  MIC: 2 µg/mL (≈ 5.56 µM)
[36]
  fold change (FC): 4
[37]
  fold change (FC): 16
[38]
  fold change (FC): 16
[39]
  MIC: > 128 µg/mL
[40]
  fold change (FC): 2
[41]
  fold change (FC): 2
[42]
  MIC: 0.25 µg/mL (≈ 0.696 µM)
[43]
  MIC: 16 µg/mL (≈ 44.5 µM)
[44]
  MIC: 2 µg/mL (≈ 5.56 µM)
[45]
  MIC: 0.5 µg/mL (≈ 1.39 µM)
[46]
  MIC: 16 µg/mL (≈ 44.5 µM)
[47]
  fold change (FC): 2
